Where two headings read alike, the source gives them in different places.
What was measured:
[1] = Micellar drug loading by reverse phase HPLC; type: physicochemical; details: PEG-PE micelles, PEG-PE 13.07 mg/mL, n = 3 with SD
Method: Drug incorporation efficiency was measured by reverse phase HPLC using an Xbridge C18 ([…]) column (Waters Corporation, Milford, Mass.) on a Hitachi Elite LaChrom HPLC with autosampler (Pleasanton, Calif.). The HPLC method was modified from previously published method. Skidan I et al., J Chromatogr B Analyt Technol Biomed Life Sci 879:1610-1616 (2011). The mobile phase consisted of either 70:30 acetonitrile:water (DM-PIT-1) or 60:40 acetonitrile:water (NCL-176, NCL-179, NCL-198, NCL-240) with a flow rate of 1 mL/min. Detection of drug was performed at a wavelength corresponding to a peak on the absorption spectrum (DM-PIT-1: 320 nm, NCL-176: 260 nm, NCL-179: 295 nm, NCL-198: 295 nm, NCL-240: 300 nm). Sample injections were kept constant at 50 μL and the sample runtime was 10 min. Concentration of drug was determined by measuring the area under curve of the peak. Standard curves of stock drug in acetonitrile from concentrations of 10 μg/mL to 15 ng/mL were used to determine incorporation of drug in micelles. 5 μL of dialyzed drug-loaded micelles were diluted in 495 μL acetonitrile to destroy micelles.

[2] = Micellar drug release by dialysis; type: physicochemical; details: 37° C.
Method: Drug-loaded micelles were analyzed for their in vitro drug release profile at 37° C. in 1×PBS pH 7.4 over 48 hrs. Micelles were prepared as described previously. 500 μL of drug-loaded micelles were aliquoted into Spectra/Pro® regenerated cellulose dialysis membranes with a MWCO of 1,000 Da and dialyzed against a large excess of 1×PBS pH 7.4. At predetermined times, dialysis bags were opened and aliquots of sample were taken and diluted with 200 μL acetonitrile. Drug concentration was determined by HPLC using previously described methods.

[3] = test system: A2780 human ovarian cancer cells; assay: Cell viability of A2780 cells, ATP assay; type: cell-based; details: for cell viability in combination with TRAIL: versus compound alone; for EC50: Homo sapiens
Method: (§1) A2780 human ovarian cancer cells were maintained in culture at 37° C., 5% CO2, complete medium for 24 h in the presence of various final concentrations of DM-PIT-1, YK-NCL-176, YK-NCL-198, or NK-YCL-240, each in DMSO, with or without 1 μg/mL TRAIL. DMSO alone was used as a negative control. Following the incubation, cell viability was measured using an ATP assay.
as §1, with “YK-NCL-217, YK-NCL-218, NK-YCL-219, YK-NCL-220, YK-NCL-234,” for “YK-NCL-176, YK-NCL-198,”, “YK-NCL-241,” for “NK-YCL-240,”

A2780 cells = assay: In vitro wound closure (cell migration), A2780; type: cell-based, human; details: A2780, up to 76 h
Method: A2780 cells and T47D cells were grown to confluence in separate cultures under conditions of 37° C., 5% CO2, and complete medium. At time zero, a pipette tip was dragged across the cells, producing a linear defect in the confluent layer of cells. Medium was then supplemented with various concentrations of DM-PIT-1, YK-NCL-176, or YK-NCL-240, or an equivalent volume of DMSO alone, and cells were maintained in culture for an additional 76 h. Linear defects were viewed with a microscope at 0, 21, 47, 69, and 76 h following addition of test agent, and the width of the defect was quantitated at each time point. This in vitro assay represents a model of wound closure.

[4] = test system: U87MG human glioblastoma cells; assay: Cell viability of U87MG cells, ATP assay; type: cell-based; details: for EC50: Homo sapiens, U-87 MG, 24 h
Method: U87MG human glioblastoma cells were maintained in culture at 37° C., 5% CO2, complete medium for 24 h in the presence of various final concentrations of YK-NCL-176, YK-NCL-177, YK-NCL-178, YK-NCL-179, YK-NCL-180, YK-NCL-183, YK-NCL-184, YK-NCL-185, YK-NCL-186, YK-NCL-187, YK-NCL-188, YK-NCL-189, YK-NCL-190, YK-NCL-191, YK-NCL-192, YK-NCL-193, YK-NCL-194, YK-NCL-195, YK-NCL-196, YK-NCL-197, NK-YCL-198, or YK-NCL-199, each in DMSO, with or without 1 μg/mL TRAIL. DMSO alone was used as a negative control. Following the incubation, cell viability was measured using an ATP assay.

A2780 ovarian carcinoma = assay: A2780 cell viability, CellTiter-Blue, free and micellar formulations; type: cell-based, human; details: for cytotoxicity on addition of TRAIL to the formulation: A2780, micellar formulation plus TRAIL; for cytotoxicity as free compound compared to DM-PIT-1: A2780, 24 h
Method: Cell viability of A2780 ovarian carcinoma was measured using CellTiter-Blue® (Promega, Madison, Wis.) viability assay. Briefly, cells were seeded in 96-well plates according to proper cell densities (3,000-5,000 cells). After 24 h incubation in 5% CO2 at 37° C., cells were treated with formulations at various concentrations for 24 h in serum complete media. After 24 h treatment, media was removed, the wells were washed with serum complete media and replaced with 50 μL media and 10 μL CellTiter-Blue®. Cell viability was evaluated after 4 h of incubation at 37° C. at 5% CO2 by measuring the fluorescence (ex. 550 nm, em. 590 nm) using a Synergy HT multi-detection microplate reader (Biotek, Winooski, Vt.).

[5] = test system: DU145 human prostate cancer cells; assay: Cell viability of DU145 cells; type: cell-based
Akt PH domain = Akt PH domain (Homo sapiens, UniProt P31749); assay: Inhibition of Akt PH domain binding to PIP3; details: in vitro
Chain of Akt PH domain (P31749 5-108 limits assumed): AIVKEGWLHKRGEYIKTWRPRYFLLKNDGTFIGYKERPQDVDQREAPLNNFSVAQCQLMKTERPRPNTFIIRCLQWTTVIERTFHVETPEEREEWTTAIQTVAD

[6] = test system: T47D human breast cancer cells; assay: Cell viability of T47D cells; type: cell-based
[7] = mouse, in vivo
[8] = A2780, 24 h, with 1 μg/mL TRAIL
[9] = A2780, 24 h, in DMSO, without TRAIL, read-out: EC50 alone
[10] = A2780, 24 h, with 1 μg/mL TRAIL, read-out: EC50 with TRAIL
[11] = in DMSO, without TRAIL, read-out: EC50 alone
[12] = with 1 μg/mL TRAIL, read-out: EC50 with TRAIL

Row | Loading Eff. [1] | drug released from micelles ([2]; 1×PBS pH 7.4, at 10 h) | EC50 [4, 11] [µM] | EC50 [4, 12] [µM] | drug released from micelles ([2]; 1×PBS pH 7.4, after 48 h) [%] | Molecule | concentration at which cell viability was reduced by at least 50 percent ([3]; A2780, 24 h, alone) [µM] | cell viability in combination with TRAIL [3, 8] | EC50 [3, 9] [µM] | EC50 [3, 10] [µM] | inhibition of cell migration (wound closure) (A2780 cells) | cytotoxicity on addition of TRAIL to the formulation (A2780 ovarian carcinoma) | cytotoxicity as free compound compared to DM-PIT-1 (A2780 ovarian carcinoma) | other results
1 | – | – | 36.7 | 20.4 | 40 | Oc1ccc(Cl)cc1-n1cc(C(O)(c2ccccc2)c2cn(-c3cc(Cl)ccc3O)nn2)nn1 [YK-NCL-179, 2,2′-(4,4′-(hydroxy(phenyl)methylene)bis(1H-1,2,3-triazole-4,1-diyl))bis(4-chlorophenol)] | – | – | – | – | – | – | improved cytotoxicity properties | –
2 | – | – | 34.8 | 18.8 | 40 | Oc1ccc(Cl)cc1-n1cc(C(O)(c2cc(C(F)(F)F)cc(C(F)(F)F)c2)c2cn(-c3cc(Cl)ccc3O)nn2)nn1 [YK-NCL-198, 2,2′-(((3,5-Bis(trifluoromethyl)phenyl)(hydroxy)methylene)bis(1H-1,2,3-triazole-4,1-diyl))bis(4-chlorophenol)] | 12.5 | further reduced cell viability | – | – | – | – | improved cytotoxicity properties | melting point: 214 °C

More lines, now with the values behind:

Row | Molecule | Loading Eff. [1] | drug released from micelles ([2]; 1×PBS pH 7.4, at 10 h) | EC50 [4, 11] [µM] | EC50 [4, 12] [µM] | drug released from micelles ([2]; 1×PBS pH 7.4, after 48 h) [%] | concentration at which cell viability was reduced by at least 50 percent ([3]; A2780, 24 h, alone) [µM] | cell viability in combination with TRAIL [3, 8] | EC50 [3, 9] [µM] | EC50 [3, 10] [µM] | inhibition of cell migration (wound closure) (A2780 cells) | cytotoxicity on addition of TRAIL to the formulation (A2780 ovarian carcinoma) | cytotoxicity as free compound compared to DM-PIT-1 (A2780 ovarian carcinoma) | other results
3 | Cc1cc(C)cc(C(=O)NC(=S)Nc2cc([N+](=O)[O-])ccc2O)c1 [DM-PIT-1, N-[(2-hydroxy-5-nitrophenyl)amino]carbonothioyl-3,5-dimethylbenzamide, reference compound] | slightly lower loading | completely released | – | – | – | 25 | further reduced cell viability | 30.5 | 18.7 | – | – | – | –
4 | O=C(c1ccccc1)c1cn(-c2cc(Cl)ccc2O)nn1 [YK-NCL-176, (1-(5-Chloro-2-hydroxyphenyl)-1H-1,2,3-triazol-4-yl)(phenyl)methanone] | slightly lower loading | completely released | 104 | 51.6 | – | 25 | further reduced cell viability | – | – | significantly more effectively than DM-PIT-1 | markedly increased cytotoxicity | – | –
5 | O=C(c1cc(C(F)(F)F)cc(C(F)(F)F)c1)c1cn(-c2cc(Cl)ccc2O)nn1 [YK-NCL-240, (3,5-Bis(trifluoromethyl)phenyl)(1-(5-chloro-2-hydroxyphenyl)-1H-1,2,3-triazol-4-yl)methanone] | – | – | – | – | 60 | < 6.25 | further reduced cell viability | 1.85 | 1.11 | significantly more effectively than either DM-PIT-1 or YK-NCL-176 | markedly increased cytotoxicity | improved cytotoxicity properties | effect of combination with TRAIL on cell viability ([5]; DU145, 1 μg/mL TRAIL): synergistic effect; in vitro cell viability ([5]; DU145, in DMSO, alone): reduce in vitro cell viability; effect of combination with TRAIL on cell viability ([4]; 1 μg/mL TRAIL): synergistic effect; in vitro cell viability ([4]; in DMSO, alone): reduce in vitro cell viability; binding of the Akt PH domain to PIP3 (Akt PH domain): robustly inhibited; improvement of EC50 compared to DM-PIT-1 alone ([3]; A2780, alone): 15 fold; improvement of EC50 compared to the combination of DM-PIT-1 and TRAIL ([3]; A2780, with TRAIL): 20 fold; effect of combination with TRAIL on cell viability ([6]; 1 μg/mL TRAIL): synergistic effect; in vitro cell viability ([6]; in DMSO, alone): reduce in vitro cell viability; non-toxic dose [7]: up to 50 mg/kg
6 | TRAIL: Tumor necrosis factor (TNF)-related apoptosis-inducing ligand; recombinant His6-tagged human TRAIL produced in E. coli (protein, UniProt P50591 1-281, looked up, His6 tag, Tumor necrosis factor (TNF)-related apoptosis-inducing ligand; recombinant His6-tagged human TRAIL produced in E. coli) Tumor necrosis factor ligand …: MAMMEVQGGPSLGQTCVLIVIFTVLLQSLCVAVTYVYFTNELKQMQDKYSKSGIACFLKEDDSYWDPNDEESMNSPCWQVKWQLRQLVRKMILRTSEETISTVQEKQQNISPLVRERGPQRVAAHITGTRGRSNTLSSPNSKNEKALGRKINSWESSRSGHSFLSNLHLRNGELVIHEKGFYYIYSQTYFRFQEEIKENTKNDKQMVQYIYKYTSYPDPILLMKSARNSCWSKDAEYGLYSIYQGGIFELKENDRIFVSVTNEHLIDMDHEASFFGAFLVG | – | – | – | – | – | – | – | – | – | – | – | – | effect on cell viability ([3]; A2780, 24 h, alone, 1 μg/mL): essentially no effect on cell viability
